Assay results reported in PMC11012289, “The Discovery of New Inhibitors of Insulin-Regulated Aminopeptidase by a High-Throughput Screening of 400,000 Drug-like Compounds” (International Journal of Molecular Sciences, 2024).
Where two headings read alike, the source gives them in different places. Where no end group is shown, it is not given here. [ ]: non-standard residue; d: D form. Nle = CCCC[C@H](N)C(=O)O

Legend:
[1] = test system: primary hippocampal neuron cultures; set-up: method as in PMID 26769413, PMID 36286055; settings: cited from earlier work
[2] = test system: APN, ERAP1, ERAP2, and LTA4H; settings: cited from earlier work
rodents = test system: rodents; set-up: method as in PMID 19233301, PMID 18716029; settings: intracerebroventricular administration; cited from earlier work
IRAP [3] = target: IRAP; set-up: method as in PMID 18716029; settings: cited from earlier work
[4] = cited from earlier work
IRAP [5] = target: T1, IRAP (Homo sapiens, UniProt Q9UIQ6); assay: Orthogonal absorbance IRAP assay (L-Leucine para-nitroanilide cleavage); assay type: biochemical; settings: 1 mM L-Leucine p-Nitroanilide, 120 min RT; for IC50: read-out: Absorbance pIC50 (converted)
T1 construct: The screen was performed with the soluble truncated IRAP enzyme; made in house
Summary of the method: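 Absorbance assay: IRAP protein at 2.5 × 10^−4 mg/mL final with 1 mM L-leucine para-nitroanilide in buffer containing 0.05% BSA; 120 min at RT in the dark. para-Nitroaniline read at 405 nm. Dose–response spanned 20 μM–27.4 nM compound, 1% DMSO.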

IRAP [6] = target: T1, IRAP; assay: Deselection fluorescence IRAP assay with 10 µM zinc; assay type: biochemical; settings: 10 µM ZnSO4 in assay buffer; for IC50: read-out: Fluorescence + Zn pIC50 (converted)
[7] = set-up: method as in ELF screening history; settings: ref ELF screening history, cited from earlier work; for Enzyme Active: number of ELF enzyme screens in which the compound was active; for Targets active: number of ELF screens in which the compound was active; for Enzyme Active %: share of ELF enzyme targets screened; for Targets Active %: share of all ELF targets screened
IRAP [8] = target: T1, IRAP; assay: Thermal shift (TSA) IRAP assay; assay type: binding; settings: screening hits at 30 µM, 1% DMSO
IRAP [9] = target: T1, IRAP; assay: Primary fluorescence IRAP assay (L-Leucine-7-amido-4-methylcoumarin cleavage); assay type: biochemical; settings: for IC50 / Fluorescence pIC50: 37.5 µM L-Leucine-7-amido-4-methylcoumarin, 60 min RT, dose-response 20 µM-27.4 nM; for IC50: read-out: Fluorescence IC50; for LipE: calculated from (pIC50Fluorescence − LogD)
rats = settings: cited from earlier work
IRAP [10] = settings: read-out: Ki (affinity to IRAP); cited from earlier work

T1 sequence (Q9UIQ6 155-1025 limits assumed): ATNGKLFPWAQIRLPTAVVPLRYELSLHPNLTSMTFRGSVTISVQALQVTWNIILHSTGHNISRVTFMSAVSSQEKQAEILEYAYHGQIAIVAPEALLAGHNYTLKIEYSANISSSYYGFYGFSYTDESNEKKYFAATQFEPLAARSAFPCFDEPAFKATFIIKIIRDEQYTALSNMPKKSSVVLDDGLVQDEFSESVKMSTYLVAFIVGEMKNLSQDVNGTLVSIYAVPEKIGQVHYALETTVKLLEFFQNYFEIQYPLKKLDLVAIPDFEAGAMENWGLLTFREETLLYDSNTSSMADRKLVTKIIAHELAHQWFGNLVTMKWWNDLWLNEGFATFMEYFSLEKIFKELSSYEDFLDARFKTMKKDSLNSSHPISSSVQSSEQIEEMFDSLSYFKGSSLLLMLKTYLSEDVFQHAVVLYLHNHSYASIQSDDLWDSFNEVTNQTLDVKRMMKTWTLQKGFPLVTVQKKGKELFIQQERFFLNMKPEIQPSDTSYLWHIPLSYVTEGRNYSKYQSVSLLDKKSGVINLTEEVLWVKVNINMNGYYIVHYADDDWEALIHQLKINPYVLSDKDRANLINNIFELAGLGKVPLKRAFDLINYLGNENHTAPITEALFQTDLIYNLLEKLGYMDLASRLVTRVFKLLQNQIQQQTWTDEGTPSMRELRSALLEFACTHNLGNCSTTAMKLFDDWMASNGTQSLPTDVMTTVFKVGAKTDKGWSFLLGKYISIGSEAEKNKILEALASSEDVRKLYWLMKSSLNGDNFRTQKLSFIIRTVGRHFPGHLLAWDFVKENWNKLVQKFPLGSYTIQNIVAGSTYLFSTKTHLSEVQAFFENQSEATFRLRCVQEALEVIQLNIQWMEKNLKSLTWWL

Compound	IC50 (IRAP [9])	LipE (IRAP [9])	Absorbance pIC50 (IRAP [5])	Fluorescence + Zn pIC50 (IRAP [6])	TSA (∆°C), thermal shift of IRAP (IRAP [8])	Fluorescence pIC50 (IRAP [9])	Enzyme Active [7]	Targets active [7]	Enzyme Active % [7]	Targets Active % [7]	also measured
N[C@H]1CCSSC[C@@H](C(=O)NCc2ccccc2CC(=O)O)NC(=O)C[C@H](Cc2ccc(O)cc2)NC1=O [HA08]											effect on hydrogen peroxide-induced toxicity [1]: reversed hydrogen peroxide-induced toxicity; effect on spine density [1]: enhanced spine densities
CCOC(=O)C1=C(NC(C)=O)Oc2cc(O)ccc2C1c1cccnc1 (stereo not shown) [HFI-419]											selectivity versus other aminopeptidases [2]: high selectivity; effect on cognition (rodents): cognitive-enhancing effect; Ki (IRAP [3]): 0.42 µM
CCOC(=O)C1=C(NC(C)=O)Oc2cc(O)ccc2C1c1cnc2ccccc2c1 (stereo not shown) [HFI-437]											Ki (IRAP [3]): 0.02 µM
CC[C@H](C)[C@H](NC(=O)[C@H](Cc1ccc(O)cc1)NC(=O)[C@@H](CN)C(C)C)C(=O)N[C@H]1Cc2c([nH]c3ccccc23)CN(CC(=O)N[C@@H](Cc2ccccc2)C(=O)O)C1=O [IVDE77]											metabolic stability [4]: improved metabolic stability
Leu-Val-Val-Tyr-Pro-Trp-Thr-Gln-Arg-Phe (LVVYPWTQRF; printed: Leu-Val-Val-Tyr-Pro-Trp-Thr-Gln-Arg-Phe) [LVV-hemorphin-7, structural analog of Ang IV]											effect on memory retention and retrieval (rats): strong promoters of memory retention and retrieval
Nle-Tyr-Ile-His-Pro-Phe ([Nle]YIHPF) [Nle-Ang IV, structural analog of Ang IV]											effect on memory retention and retrieval (rats): strong promoters of memory retention and retrieval
Val-Tyr-Ile-His-Pro-Phe [Ang IV]											Ki (IRAP [10]): 0.062 µM; effect on memory and learning (rats; intracerebroventricular injection): improved memory and learning

Continued, in another order:

IC50 (IRAP [9])	LipE (IRAP [9])	Absorbance pIC50 (IRAP [5])	Fluorescence + Zn pIC50 (IRAP [6])	TSA (∆°C), thermal shift of IRAP (IRAP [8])	Fluorescence pIC50 (IRAP [9])	Compound	Enzyme Active [7]	Targets active [7]	Enzyme Active % [7]	Targets Active % [7]	also measured
4.68 µM	3.06					NCC[C@H]1CCCCN1C(=O)Cn1nc(-c2ccc(Cl)nc2)c2c1CCCC2 [QHL38]	5	9	6.3%	6.5%	IC50 (IRAP [5]): 11 µM; IC50 (IRAP [6]): 4.57 µM; ΔTm at 30 µM (IRAP [8]): 2.22 °C
4.68 µM	0.66	5.12	5.33	0 °C	5.33	CCOC(=O)c1c(Cl)cc(C)nc1N1CCCC(Cc2ccc(C(=O)N(C)C)cc2)C1 (stereo not shown) [QHL39]	6	7	7.1%	4.9%	
4.68 µM	4.38					O=C1CN(c2cc(=O)n3ccn(Cc4ccc(F)cc4Cl)c3n2)CCN1 [QHL40]	4	6	4.3%	4.2%	IC50 (IRAP [5]): > 20 µM; IC50 (IRAP [6]): 5.25 µM; ΔTm at 30 µM (IRAP [8]): 0.3 °C
4.68 µM	0.59	5.81	5.11	0.44 °C	5.33	CCCCc1nc2ccn(Cc3cccc(C#N)c3)c(=O)c2n1Cc1cccc(C#N)c1 [QHL41]	6	8	7.6%	5.5%	
4.79 µM	1.29	5.40	5.32	2.96 °C	5.32	NC(=O)CCc1ccc2c(c1)nc(N)n2Cc1ccc(-c2ccccc2)cc1 [QHL42]	6	12	7.3%	8.1%	
6.46 µM	1.50	< 4.70	5.18	0.44 °C	5.19	c1scc2c(N3CCCCCC3)nc(N3CCC3)nc12 [QHL44]	4	6	4.3%	4.0%	
7.76 µM	2.74	6.09	5.12	0.89 °C	5.11	CCn1c(=O)n(CC(=O)N(C)CCc2ccc(O)c3[nH]c(=O)sc23)c2ccccc21 [QHL45]	5	11	6.0%	7.9%	
10.2 µM	3.57	5.51	4.99	0.3 °C	4.99	COCCN1CCc2cnc(NCc3ccc(S(N)(=O)=O)cc3)cc21 [QHL47]	4	6	4.7%	4.2%	
17.8 µM	0.76	5.65	4.74	0.44 °C	4.75	Cc1cc2nc(N)n(Cc3ccccc3)c2cc1C [QHL49]	4	9	4.9%	6.2%	
18.2 µM	2.06	5.36	4.7	0.44 °C	4.74	c1ccn(CCCSc2nnc3ccc(N4CCCC4)nn23)c1 [QHL50]	7	11	8.1%	7.6%	
